Measured values published in patent US9469645B2, “Compounds and compositions for the treatment of parasitic diseases” (Novartis AG, priority 2009, dated 2016).

How the values were obtained:
3D7 P. falciparum strain = assay: parasite proliferation assay in infected red blood cells (SYBR Green I); type: cell-based, Plasmodium falciparum; conditions: Plasmodium falciparum, 3D7, Erythrocyte, 3D7 strain; read-out: EC50 3D7 strain
How it was run: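 P. falciparum 3D7 grown in O+ human erythrocytes to 3–8% parasitemia and exposed to compounds. Proliferation read as the increase in parasite DNA. Detection used SYBR Green I in saponin/triton-X/EDTA lysis buffer, with overnight lysis at room temperature.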

W2 strain = assay: parasite proliferation assay in infected red blood cells (SYBR Green I), W2 strain; type: cell-based, Plasmodium falciparum; conditions: Plasmodium falciparum, Erythrocyte
Excerpt: Compounds of the invention can be assayed to measure their capacity to inhibit proliferation of parasitemia in infected red blood cells. The proliferation is quantified by the addition of SYBR Green I (INVITROGEN)® dye which has a high affinity for double stranded DNA.

Row | SMILES | EC50 (3D7 P. falciparum strain) | EC50 (W2 strain)
1 | Cc1ccc(Nc2c(-c3ccc(F)cc3)nc3n2CCN(C(=O)C(C)(C)N)C3(C)C)cc1C#N [Compound 590] | 30 nM | 18 nM
2 | CC1(C)Cn2c(nc(-c3ccc(F)cc3)c2Nc2ccc(Cl)cc2)CN1 [Compound 558] | 60 nM | 89 nM
3 | N[C@@H](Cc1ccc(F)c(F)c1)C(=O)N1CCn2c(nc(-c3ccc(F)cc3)c2Nc2ccc(Cl)cc2)C1 [Compound 460] | 40 nM | 33 nM
4 | CC(C)C[C@H](N)C(=O)N1CCn2c(nc(-c3ccc(F)cc3)c2Nc2ccc(F)cc2)C1 [Compound 468] | 30 nM | 20 nM
5 | CC(C)[C@@H]1NC(=O)Cn2c1nc(-c1ccc(F)cc1)c2Nc1ccc(Cl)c(F)c1 [Compound 562] | 4820 nM | 6290 nM
6 | N[C@H](C(=O)N1CCn2c(nc(-c3ccc(F)cc3)c2Nc2ccc(Cl)cc2)C1)C1CC1 [Compound 450] | 20 nM | 15 nM
7 | CC1(C)NC(=O)Cn2c1nc(-c1ccc(F)cc1)c2Nc1ccc(F)cc1 [Compound 512] | 190 nM | 165 nM
8 | Cc1ccc(Nc2c(-c3ccc(F)cc3)nc3n2CCNC3(C)C)cc1C(=O)O [Compound 526] | 1120 nM | 974 nM
9 | N[C@@H](CC1CC1)C(=O)N1CCn2c(nc(-c3ccc(F)cc3)c2Nc2ccc(Cl)c(F)c2)C1 [Compound 488] | 20 nM | 13 nM
10 | Cc1ccc(C[C@H](N)C(=O)N2CCn3c(nc(-c4ccc(F)cc4)c3Nc3ccc(C)cc3)C2)cc1 [Compound 484] | 40 nM | 23 nM
11 | N[C@@H](CC1CCC1)C(=O)N1CCn2c(nc(-c3ccc(F)cc3)c2Nc2ccc(Cl)cc2)C1 [Compound 452] | 20 nM | 19 nM
12 | Cc1ccc(Nc2c(-c3ccc(F)cc3)nc3n2CCN(C(=O)[C@@H](N)Cc2ccc(F)cc2)C3)cc1 [Compound 483] | 50 nM | 25 nM
13 | Cc1ccc(Nc2c(-c3cc(F)ccc3F)nc3n2CCN(C(=O)C(C)(C)N)C3)cc1 [Compound 408] | 930 nM | 908 nM
14 | Cc1ccc(C[C@H](N)C(=O)N2CCn3c(nc(-c4ccc(F)cc4)c3Nc3ccc(F)cc3)C2)cc1 [Compound 474] | 130 nM | 88 nM
15 | CC(C)[C@H](O)C(=O)N1CCn2c(nc(-c3ccc(F)cc3)c2Nc2ccc(F)cc2)C1 [Compound 470] | 10 nM | 12 nM
16 | CC1(C)Cn2c(nc(-c3ccc(F)cc3)c2Nc2ccc(F)c(F)c2)CN1C(=O)CN [Compound 575] | 80 nM | 81 nM
17 | Cc1ccc(Nc2c(-c3ccc(F)cc3)nc3n2C(C)(C)CN(C)C3(C)C)cc1 [Compound 539] | 3060 nM | 3120 nM
18 | CC(C)(N)C(=O)N1CCn2c(nc(-c3ccc(F)cc3)c2Nc2ccc(F)cc2)C1(C)C [Compound 583] | 10 nM | 9 nM
19 | CC[C@H](C)[C@H](N)C(=O)N1CCn2c(nc(-c3ccc(F)cc3)c2Nc2ccc(C)cc2)C1 [Compound 481] | 20 nM | 14 nM
20 | CC1(C)c2nc(-c3ccc(F)cc3)c(Nc3cccc(NS(C)(=O)=O)c3)n2CCN1C(=O)CN [Compound 552] | 2520 nM | 4480 nM
21 | CC(C)(N)C(=O)N1CCn2c(nc(-c3ccc(F)cc3)c2Nc2ccc(C#N)c(Cl)c2)C1(C)C [Compound 591] | 60 nM | 46 nM

Row | SMILES | EC50 (3D7 P. falciparum strain) | EC50 (W2 strain)
22 | CC1(C)NCCn2c1nc(-c1ccc(F)cc1)c2Nc1ccc(Cl)c(F)c1 [Compound 420] | 20 nM | 28 nM
23 | COc1ccc(Nc2c(-c3ccc(F)cc3)nc3n2CC(=O)NC3(C)C)cn1 [Compound 545] | 3380 nM | 5620 nM
24 | Cc1ccc(Nc2c(-c3ccc(F)cc3)nc3n2CC(=O)NC3(C)C)cc1C#N [Compound 535] | 2720 nM | 2350 nM
25 | C[C@H]1NC(=O)Cn2c1nc(-c1ccc(F)cc1)c2Nc1ccc(Cl)cc1 [Compound 565] | 70 nM | 105 nM
26 | N[C@@H](CC1CCC1)C(=O)N1CCn2c(nc(-c3ccc(F)cc3)c2Nc2ccc(F)cc2)C1 [Compound 467] | 20 nM | 16 nM
27 | CC1(C)NC(=O)Cn2c1nc(-c1ccc(F)cc1)c2Nc1cnc2ccccc2c1 [Compound 566] | 5480 nM | 4460 nM
28 | Cc1ccc(Nc2c(-c3ccc(F)cc3)nc3n2CCN(C(=O)C(C)(N)CO)C3)cc1 (stereo not shown) [Compound 505] | 140 nM | 116 nM
29 | Cc1ccc(C[C@H](N)C(=O)N2CCn3c(nc(-c4ccc(F)cc4)c3Nc3ccc(Cl)cc3)C2)cc1 [Compound 459] | 40 nM | 24 nM
30 | C[C@@H]1c2nc(-c3ccc(F)cc3)c(Nc3ccc(Cl)c(F)c3)n2CCN1C(=O)CN [Compound 596] | 30 nM | 29 nM
31 | CC1(C)c2nc(-c3ccc(F)cc3)c(Nc3ccc(S(C)(=O)=O)cc3)n2CCN1C(=O)CN [Compound 570] | 5680 nM | 5560 nM
32 | Cc1ccc(Nc2c(-c3ccc(Cl)c(F)c3)nc3n2CCN(C(=O)C(C)(C)N)C3)cc1 [Compound 521] | 5000 nM | 3030 nM
33 | N[C@@H](Cc1cscn1)C(=O)N1CCn2c(nc(-c3ccc(F)cc3)c2Nc2ccc(Cl)cc2)C1 [Compound 461] | 30 nM | 22 nM
34 | Cc1ccc(Nc2c(-c3ccc(F)cc3)nc3n2CCN(C(=O)[C@@H](N)C2CC2)C3)cc1 [Compound 404] | 20 nM | 12 nM
35 | Cc1ccc(Nc2c(-c3ccc(F)cc3)nc3n2CCN(C(=O)[C@@](C)(N)Cc2ccc(F)cc2)C3)cc1 [Compound 502] | 1390 nM | 1370 nM
36 | CC1(C)Cn2c(nc(-c3ccc(F)cc3)c2Nc2ccc(Cl)cc2)CN1C(=O)CN [Compound 557] | 20 nM | 20 nM
37 | Cc1ccc(Nc2c(-c3ccc(F)cc3)nc3n2CCN(C(=O)[C@@H](N)CC2CC2)C3)cc1 [Compound 401] | 20 nM | 12 nM
38 | Cc1cccc(Nc2c(-c3ccc(F)cc3)nc3n2CCN(C(=O)CN)C3(C)C)c1 [Compound 499] | 10 nM | 6 nM
39 | Cc1ccc(Nc2c(-c3ccc(Cl)c(F)c3)nc3n2CCN(C(=O)CN)C3)cc1 [Compound 520] | 160 nM | 158 nM
40 | CC1(C)NCCn2c1nc(-c1ccc(F)cc1)c2Nc1ccc(F)c(Cl)c1 [Compound 424] | 20 nM | 30 nM
41 | CC(C)[C@@H](O)C(=O)N1CCn2c(nc(-c3ccc(F)cc3)c2Nc2ccc(F)c(F)c2)C1 [Compound 430] | 10 nM | 19 nM
42 | CC1(C)Cn2c(nc(-c3ccc(F)cc3)c2Nc2ccc(F)cc2)CN1C(=O)CN [Compound 574] | 80 nM | 111 nM

Row | SMILES | EC50 (3D7 P. falciparum strain) | EC50 (W2 strain)
43 | Cc1ccc(Nc2c(-c3ccc(F)cc3)nc3n2CCN(C(=O)[C@@H](N)CC(C)C)C3)cc1 [Compound 480] | 30 nM | 22 nM
44 | CC1(C)c2nc(-c3ccc(F)cc3)c(Nc3ccc(Cl)c(F)c3)n2CCN1C(=O)CN [Compound 419] | 30 nM | 24 nM
45 | CC1(C)Cn2c(nc(-c3ccc(F)cc3)c2Nc2ccc(F)cc2)CN1 [Compound 579] | 180 nM | 146 nM
46 | Cc1ccc(Nc2c(-c3ccncc3)nc3n2CCN(C(=O)C(C)(C)N)C3)cc1 [Compound 398] | 2730 nM | 2680 nM
47 | Cc1ccc(Nc2c(-c3ccc(F)cc3)nc3n2CCN(C(=O)[C@@H](N)CC2CCC2)C3)cc1 [Compound 479] | 20 nM | 12 nM
48 | Cc1cc(Nc2c(-c3ccc(F)cc3)nc3n2CC(=O)NC3(C)C)ccc1F [Compound 544] | 20 nM | 37 nM
49 | Cc1ccc(Nc2c(-c3ccc(F)cc3)nc3n2CCN(C(=O)[C@@H](N)Cc2ccc(F)c(F)c2)C3)cc1 [Compound 485] | 30 nM | 23 nM
50 | CC1(C)Cn2c(nc(-c3ccc(F)cc3)c2Nc2ccc(Cl)c(F)c2)CN1C(=O)CN [Compound 576] | 200 nM | 234 nM
51 | CC(C)[C@H](N)C(=O)N1CCn2c(nc(-c3ccc(F)cc3)c2Nc2ccc(Cl)cc2)C1 [Compound 449] | 30 nM | 26 nM
52 | Cc1ccc(Nc2c(-c3ccc(F)c(Cl)c3)nc3n2CCNC3)cc1 [Compound 497] | 8000 nM | 5820 nM
53 | Fc1ccc(-c2nc3n(c2Nc2ccc(Cl)c(Cl)c2)CCNC3)cc1 [Compound 411] | 140 nM | 106 nM
54 | CC(C)(N)C(=O)N1CCn2c(nc(-c3ccc(F)cc3)c2Nc2ccc(F)c(F)c2)C1(C)C [Compound 585] | 10 nM | 7 nM
55 | CC1(C)NCCn2c1nc(-c1ccc(F)cc1)c2Nc1ccc(Cl)cc1 [Compound 416] | 10 nM | 16 nM
56 | CC1(C)NC(=O)Cn2c1nc(-c1ccc(F)cc1)c2Nc1cc(F)c(F)c(F)c1 [Compound 543] | 170 nM | 305 nM
57 | N[C@H](C(=O)N1CCn2c(nc(-c3ccc(F)cc3)c2Nc2ccc(Cl)cc2)C1)c1ccc(F)cc1 [Compound 457] | 20 nM | 11 nM
58 | Cc1ccc(Nc2c(-c3ccc(F)cc3)nc3n2CC(C)(C)NC3)cc1 [Compound 578] | 250 nM | 339 nM
59 | N[C@H](C(=O)N1CCn2c(nc(-c3ccc(F)cc3)c2Nc2ccc(F)cc2)C1)C1CC1 [Compound 465] | 1.9 nM | 2 nM
60 | CC(C)[C@H](O)C(=O)N1CCn2c(nc(-c3ccc(F)cc3)c2Nc2ccc(Cl)c(F)c2)C1 [Compound 489] | 10 nM | 9 nM
61 | Cc1cc(Nc2c(-c3ccc(F)cc3)nc3n2CC(=O)NC3(C)C)nn1C [Compound 560] | 3610 nM | 5220 nM
62 | CC1(C)NCCn2c1nc(-c1ccc(F)cc1)c2Nc1ccc(C#N)cc1 [Compound 426] | 180 nM | 271 nM
